Common to all, as to type: physicochemical
A short description of data set [1]: Screening assay: re-dissolution of the wet solid in pH 6 and pH 4 buffers. Conditions: solid formed with the ligand. The procedure:
A series of dietary ligands was tested in a screening assay for their effects on the formation of solid ligand-modified poly oxo-hydroxy metal ion materials. […] The volumes were then equally adjusted to parity with a solution of 50 mM MOPS and 0.9% NaCl. […] After centrifugation at 2500 rpm for 10 minutes, an aliquot of supernatant was taken to analyse the iron remaining in solution. […] The iron concentration in each aliquot was measured by ICPOES analysis.

Data set [2] in a line: Screening assay: formation (precipitation) of solid poly oxo-hydroxy iron in presence of ligand. The note with it: ratios 1:1 to 1:5. The procedure: A series of dietary ligands was tested in a screening assay for their effects on the formation of solid ligand-modified poly oxo-hydroxy metal ion materials. Briefly, in a centrifuge tube, a fixed volume of stock solution of ferric iron (400 mM FeCl3 with 50 mM MOPS, pH 1.4) was mixed with varying volumes of a stock solution of ligand (400 mM with the exception of maltol which was 200 mM, plus MOPS at 50 mM and 0.9% NaCl) to obtain the desired metal:ligand ratio. The volumes were then equally adjusted to parity with a solution of 50 mM MOPS and 0.9% NaCl. […] A small aliquot was taken to confirm the starting iron concentration and then the pH was raised to ˜6.5 by drop-wise addition of concentrated NaOH to avoid high volume changes. After centrifugation at 2500 rpm for 10 minutes, an aliquot of supernatant was taken to analyse the iron remaining in solution. The remaining supernatant was discarded and a fixed volume of dissolution buffer at pH 6 (MOPS10 mM) or pH 4 (Acetic acid 10 mM) was then added to the wet solid of each tube and incubated overnight at room temperature. The tubes were then centrifuged (2500 rpm for 10 minutes) and an aliquot of supernatant taken to determine the iron that was disaggregated. The iron concentration in each aliquot was measured by ICPOES analysis.
Initially, the ligands were all tested using the screening assay described above at ratios of 1:1 to 1:5 and classified in three groups.

Data set [3] in a line: In vitro gastrointestinal digestion assay (simulated stomach and duodenum). Conditions: pH 1.2. On the procedure:
An amount of the solid ligand-modified poly oxo-hydroxy ferric iron materials or control iron materials namely ferrous sulphate, ferric chloride, or unmodified ferric oxo-hydroxide, equivalent to 60 mg elemental iron, were added to a synthetic gastric (stomach) solution (50 mL of 2 g/L NaCl, 0.15 M HCl and 0.3 mg/mL porcine pepsin) and incubated at 37° C. for 30 minutes with radial shaking. […] The mixture was incubated at 37° C. for 60 min with radial shaking. Homogeneous Aliquots (1 mL) were collected at different time points during the process and centrifuged at 13,000 rpm for 10 minutes to separate the aggregate and aquated phases. The supernatant was analysed for iron content by ICPOES. […] The mass of remaining material (i.e. the wet pellet) was recorded. Concentrated HNO3 was added to this wet pellet and the new mass recorded. […] The starting amount of iron was calculated from the iron in the wet pellet plus the iron in the supernatant. To differentiate between soluble iron and aquated particulate iron in the supernatant, at each time point, this fraction was also ultrafiltered (Vivaspin 3,000 Da molecular weight cut-off polyethersulfone membrane, Sartorius Stedium Biotech GmbH, Goettingen, Germany) and again analysed by ICPOES. […]

In the case of `Cc1occc(=O)c1O` [maltol], the “re-dissolution of the iron at pH 6.0 (in words)” value in data set [1] is given as “did not promote any re-dissolution”.
Turning to `O=C(O)C(O)C(O)C(=O)O` (centres unmarked) [tartaric acid], the “Ligand group by effect on the amount of solid material formed” value (from here on “Ligand group by effect on the amount”) in data set [2] is recorded as “intermediate ligands”.
Turning to `O=S(=O)([O-])[O-].[Fe+2]` [Ferrous sulphate, ferrous sulphate], the “gastric disaggregation and dissolution profile (in words)” value in data set [3] was “disaggregates and dissolves very well”.
With `NC(=O)CC[C@H](N)C(=O)O` [glutamine], the “Ligand group by effect on the amount” value in data set [2] is “intermediate ligands”.
Turning to `O=C(O)CC(O)C(=O)O` (centres unmarked) [malic acid], the “Ligand group by effect on the amount” value in data set [2] is “intermediate ligands”.

The values are drawn from US8058462B2, “Ligand modified poly oxo-hydroxy metal ion materials, their uses and processes for their preparation” (Medical Research Council, priority 2007, dated 2011).
